From the NIST ThermoML archive (doi:10.1016/j.jct.2008.05.005)

Experiment: xn = mol fraction of the nth substance listed
Conditions: Liquid, Vibrating tube method

CCCCn1cc[n+](C)c1.F[B-](F)(F)F [1-butyl-3-methylimidazolium tetrafluoroborate] + CO
Conditions | mass density [kg/m3]
348.15 K, 20140 kPa, x1 = 0.9102 | 1177.87
348.15 K, 20370 kPa, x1 = 0.1302 | 949.49
348.15 K, 20420 kPa, x1 = 0.2626 | 1040.92
348.15 K, 20440 kPa, x1 = 0.0087 | 779.62
348.15 K, 25180 kPa, x1 = 0.0433 | 846.4
348.15 K, 25270 kPa, x1 = 0.1302 | 953.3
348.15 K, 25310 kPa, x1 = 0.2626 | 1044.36
348.15 K, 25310 kPa, x1 = 0.4988 | 1122.86
348.15 K, 25320 kPa, x1 = 0.0087 | 784.47
348.15 K, 25620 kPa, x1 = 0.7501 | 1164.19
348.15 K, 25620 kPa, x1 = 0.9102 | 1180.73
348.15 K, 30070 kPa, x1 = 0.7501 | 1166.56
348.15 K, 30090 kPa, x1 = 0.4988 | 1125.66
348.15 K, 30140 kPa, x1 = 0.9102 | 1183.03
348.15 K, 30150 kPa, x1 = 0.0087 | 789.02
348.15 K, 30160 kPa, x1 = 0.0433 | 850.67
348.15 K, 30210 kPa, x1 = 0.2626 | 1047.7
348.15 K, 30560 kPa, x1 = 0.1302 | 957.16
348.15 K, 35010 kPa, x1 = 0.7501 | 1169.13
348.15 K, 35080 kPa, x1 = 0.2626 | 1050.92
348.15 K, 35120 kPa, x1 = 0.0087 | 793.42
348.15 K, 35260 kPa, x1 = 0.4988 | 1128.6
348.15 K, 35420 kPa, x1 = 0.1302 | 960.46
348.15 K, 35740 kPa, x1 = 0.0433 | 855.14
348.15 K, 35740 kPa, x1 = 0.9102 | 1185.8
348.15 K, 39640 kPa, x1 = 0.0087 | 797.19
348.15 K, 39720 kPa, x1 = 0.1302 | 963.19
348.15 K, 39920 kPa, x1 = 0.2626 | 1054.02
348.15 K, 39920 kPa, x1 = 0.4988 | 1131.18
348.15 K, 39980 kPa, x1 = 0.9102 | 1187.84
348.15 K, 39990 kPa, x1 = 0.7501 | 1171.65
348.15 K, 40010 kPa, x1 = 0.0433 | 858.32
373.15 K, 620 kPa, x1 = 0.0433 | 797.86
373.15 K, 620 kPa, x1 = 0.9102 | 1149.53
373.15 K, 680 kPa, x1 = 0.0087 | 731.31
373.15 K, 840 kPa, x1 = 0.1302 | 910.67
373.15 K, 840 kPa, x1 = 0.7501 | 1131.82
373.15 K, 880 kPa, x1 = 0.4988 | 1088.22
373.15 K, 960 kPa, x1 = 0.2626 | 1006.13
373.15 K, 5010 kPa, x1 = 0.7501 | 1134.65
373.15 K, 5320 kPa, x1 = 0.2626 | 1009.96
373.15 K, 5410 kPa, x1 = 0.0087 | 738.04
373.15 K, 5410 kPa, x1 = 0.9102 | 1152.54
373.15 K, 5450 kPa, x1 = 0.1302 | 915.31
373.15 K, 5470 kPa, x1 = 0.4988 | 1091.64
373.15 K, 5500 kPa, x1 = 0.0433 | 804.09
373.15 K, 10030 kPa, x1 = 0.9102 | 1155.38
373.15 K, 10070 kPa, x1 = 0.2626 | 1014.1
373.15 K, 10080 kPa, x1 = 0.4988 | 1095
373.15 K, 10280 kPa, x1 = 0.1302 | 919.98
373.15 K, 10320 kPa, x1 = 0.7501 | 1138.17
373.15 K, 10390 kPa, x1 = 0.0087 | 744.76
373.15 K, 10780 kPa, x1 = 0.0433 | 810.45
373.15 K, 15090 kPa, x1 = 0.7501 | 1141.24
373.15 K, 15170 kPa, x1 = 0.1302 | 924.53
373.15 K, 15230 kPa, x1 = 0.2626 | 1018.44
373.15 K, 15390 kPa, x1 = 0.0433 | 815.67
373.15 K, 15430 kPa, x1 = 0.4988 | 1098.81
373.15 K, 15450 kPa, x1 = 0.0087 | 751.2
373.15 K, 15720 kPa, x1 = 0.9102 | 1158.79
373.15 K, 20090 kPa, x1 = 0.2626 | 1022.37
373.15 K, 20210 kPa, x1 = 0.0433 | 820.81
373.15 K, 20420 kPa, x1 = 0.1302 | 929.19
373.15 K, 20420 kPa, x1 = 0.7501 | 1144.57
373.15 K, 20580 kPa, x1 = 0.0087 | 757.35
373.15 K, 20610 kPa, x1 = 0.4988 | 1102.41
373.15 K, 20610 kPa, x1 = 0.9102 | 1161.64
373.15 K, 24990 kPa, x1 = 0.0433 | 825.57
373.15 K, 25080 kPa, x1 = 0.7501 | 1147.41
373.15 K, 25330 kPa, x1 = 0.1302 | 933.36
373.15 K, 25340 kPa, x1 = 0.2626 | 1026.45
373.15 K, 25340 kPa, x1 = 0.4988 | 1105.63
373.15 K, 25580 kPa, x1 = 0.0087 | 762.96
373.15 K, 25830 kPa, x1 = 0.9102 | 1164.62
373.15 K, 29810 kPa, x1 = 0.1302 | 936.98
373.15 K, 30080 kPa, x1 = 0.2626 | 1029.97
373.15 K, 30080 kPa, x1 = 0.4988 | 1108.78
373.15 K, 30140 kPa, x1 = 0.9102 | 1167.01
373.15 K, 30410 kPa, x1 = 0.7501 | 1150.55
373.15 K, 30550 kPa, x1 = 0.0433 | 830.7
373.15 K, 30780 kPa, x1 = 0.0087 | 768.4
373.15 K, 34970 kPa, x1 = 0.0433 | 834.46
373.15 K, 35040 kPa, x1 = 0.9102 | 1169.67
373.15 K, 35210 kPa, x1 = 0.7501 | 1153.29
373.15 K, 35560 kPa, x1 = 0.1302 | 941.4
373.15 K, 35620 kPa, x1 = 0.2626 | 1033.9
373.15 K, 35640 kPa, x1 = 0.4988 | 1112.39
373.15 K, 35780 kPa, x1 = 0.0087 | 773.25
373.15 K, 39510 kPa, x1 = 0.0087 | 776.62
373.15 K, 39910 kPa, x1 = 0.0433 | 838.34
373.15 K, 39940 kPa, x1 = 0.2626 | 1036.83
373.15 K, 39940 kPa, x1 = 0.9102 | 1172.26
373.15 K, 39970 kPa, x1 = 0.4988 | 1115.12
373.15 K, 39980 kPa, x1 = 0.7501 | 1155.94
373.15 K, 40050 kPa, x1 = 0.1302 | 944.67
398.15 K, 870 kPa, x1 = 0.0087 | 702.45
398.15 K, 980 kPa, x1 = 0.7501 | 1114.32
398.15 K, 990 kPa, x1 = 0.4988 | 1069.4
398.15 K, 1020 kPa, x1 = 0.2626 | 985.77
398.15 K, 1030 kPa, x1 = 0.9102 | 1132.67
398.15 K, 1250 kPa, x1 = 0.0433 | 772.27
398.15 K, 2310 kPa, x1 = 0.1302 | 891.44
398.15 K, 5010 kPa, x1 = 0.0087 | 709.59
398.15 K, 5060 kPa, x1 = 0.0433 | 778.08
398.15 K, 5060 kPa, x1 = 0.2626 | 989.1
398.15 K, 5080 kPa, x1 = 0.4988 | 1072.6
398.15 K, 5120 kPa, x1 = 0.1302 | 894.51
398.15 K, 5310 kPa, x1 = 0.7501 | 1117.54
398.15 K, 5410 kPa, x1 = 0.9102 | 1135.7
398.15 K, 10030 kPa, x1 = 0.0087 | 717.77
398.15 K, 10030 kPa, x1 = 0.1302 | 899.7
398.15 K, 10120 kPa, x1 = 0.2626 | 994.1
398.15 K, 10250 kPa, x1 = 0.9102 | 1138.98
398.15 K, 10410 kPa, x1 = 0.0433 | 785.75
398.15 K, 10410 kPa, x1 = 0.7501 | 1121.25
398.15 K, 10470 kPa, x1 = 0.4988 | 1077.23
398.15 K, 14950 kPa, x1 = 0.0087 | 725.27
398.15 K, 15020 kPa, x1 = 0.1302 | 904.75
398.15 K, 15070 kPa, x1 = 0.0433 | 791.97
398.15 K, 15210 kPa, x1 = 0.4988 | 1081.15
398.15 K, 15360 kPa, x1 = 0.9102 | 1142.35
398.15 K, 15450 kPa, x1 = 0.2626 | 999.14
398.15 K, 15960 kPa, x1 = 0.7501 | 1125.17
398.15 K, 20030 kPa, x1 = 0.4988 | 1085
398.15 K, 20060 kPa, x1 = 0.0087 | 732.52
398.15 K, 20060 kPa, x1 = 0.2626 | 1003.34
398.15 K, 20100 kPa, x1 = 0.1302 | 909.67
398.15 K, 20310 kPa, x1 = 0.0433 | 798.45
398.15 K, 20340 kPa, x1 = 0.7501 | 1128.18
398.15 K, 20470 kPa, x1 = 0.9102 | 1145.63
398.15 K, 24980 kPa, x1 = 0.0087 | 738.99
398.15 K, 25010 kPa, x1 = 0.9102 | 1148.46
398.15 K, 25060 kPa, x1 = 0.1302 | 914.25
398.15 K, 25080 kPa, x1 = 0.0433 | 803.88
398.15 K, 25320 kPa, x1 = 0.4988 | 1089.05
398.15 K, 25620 kPa, x1 = 0.2626 | 1008.18
398.15 K, 25720 kPa, x1 = 0.7501 | 1131.78
398.15 K, 29970 kPa, x1 = 0.1302 | 918.57
398.15 K, 30080 kPa, x1 = 0.7501 | 1134.62
398.15 K, 30090 kPa, x1 = 0.4988 | 1092.57
398.15 K, 30120 kPa, x1 = 0.0087 | 745.21
398.15 K, 30200 kPa, x1 = 0.0433 | 809.19
398.15 K, 30740 kPa, x1 = 0.2626 | 1012.44
398.15 K, 30890 kPa, x1 = 0.9102 | 1152.03
398.15 K, 34960 kPa, x1 = 0.0433 | 813.67
398.15 K, 35040 kPa, x1 = 0.4988 | 1096.06
398.15 K, 35060 kPa, x1 = 0.1302 | 922.81
398.15 K, 35210 kPa, x1 = 0.7501 | 1137.87
398.15 K, 35280 kPa, x1 = 0.9102 | 1154.61
398.15 K, 35310 kPa, x1 = 0.0087 | 750.93
398.15 K, 35620 kPa, x1 = 0.2626 | 1016.31
398.15 K, 39740 kPa, x1 = 0.1302 | 926.51
398.15 K, 39920 kPa, x1 = 0.9102 | 1157.27
398.15 K, 39940 kPa, x1 = 0.0433 | 817.88
398.15 K, 39940 kPa, x1 = 0.7501 | 1140.77
398.15 K, 39960 kPa, x1 = 0.4988 | 1099.38
398.15 K, 39970 kPa, x1 = 0.0087 | 755.59
398.15 K, 39980 kPa, x1 = 0.2626 | 1019.62
